Measured values from patent publication US8163909B2, “Substituted hydroxyethyl amine compounds as beta-secretase modulators and methods of use” (Amgen Inc., priority 2007, dated 2012).
Read-outs that look alike come from different tables or passages of the source.

Legend:
CYP3A4 (CYP3A) = CYP3A4 (CYP3A) (Homo sapiens, UniProt P08684); test: in vitro; details: microsomes, pH 7.4;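 further: inhibition of CYP3A-mediated 1-hydroxymidazolam formation after 10 min incubation with NADPH, quantified by HPLC MS relative to metabolite produced without test compound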
CYP2D6 = CYP2D6 (Homo sapiens, UniProt P10635); test: CYP2D6 inhibition assay (bufuralol, pooled human liver microsomes); details: 2D6 IC50 (uM)
[1] = tested on: Aβ40 in conditioned medium of cells stably expressing Amyloid Precursor Protein (APP); test: In vitro BACE cell-based assay (Aβ40 in conditioned medium, sandwich ELISA); details: Homo sapiens, read-out: HEK cell assay;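 further: compounds added as a dilution series, secreted peptide quantified by europium time-resolved fluorescence readout, potency fitted from percent of control versus compound concentration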
[2] = biological target: Beta Secretase enzyme (BACE) (Homo sapiens, UniProt P56817); test: In vitro enzymatic BACE FRET (fluorescence resonance energy transfer) assay; type: biochemical; details: read-out: BACE1 FRET assay;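 further: fluorescence read after 1 h with 50 nM quenched peptide substrate spanning the BACE cleavage site, in pH 4.2 acetate buffer containing 10% DMSO and nonionic detergent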
[3] = Microsomal stability assay, rat liver microsomes;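 further: rat liver microsomes (0.25 mg/mL) with about 1 µM compound plus 1 mM NADPH, pH 7.4, 37 °C for 30 min, parent left measured by LC-MS/MS against 0 min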
[4] = Microsomal stability assay, human liver microsomes;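 further: pooled human liver microsomes at 0.25 mg/mL with 1 µM compound and NADPH at 37 °C, pH 7.4, for 30 min, unchanged parent quantified by LC-MS/MS against the 0 min sample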
[5] = HEK293, HEK cell-based assay IC50
[6] = HEK293, HEK cell-based assay, IC50's in uM
[7] = BACE enzyme assay, IC50's in uM

Sequence of CYP2D6 (P10635 whole entry): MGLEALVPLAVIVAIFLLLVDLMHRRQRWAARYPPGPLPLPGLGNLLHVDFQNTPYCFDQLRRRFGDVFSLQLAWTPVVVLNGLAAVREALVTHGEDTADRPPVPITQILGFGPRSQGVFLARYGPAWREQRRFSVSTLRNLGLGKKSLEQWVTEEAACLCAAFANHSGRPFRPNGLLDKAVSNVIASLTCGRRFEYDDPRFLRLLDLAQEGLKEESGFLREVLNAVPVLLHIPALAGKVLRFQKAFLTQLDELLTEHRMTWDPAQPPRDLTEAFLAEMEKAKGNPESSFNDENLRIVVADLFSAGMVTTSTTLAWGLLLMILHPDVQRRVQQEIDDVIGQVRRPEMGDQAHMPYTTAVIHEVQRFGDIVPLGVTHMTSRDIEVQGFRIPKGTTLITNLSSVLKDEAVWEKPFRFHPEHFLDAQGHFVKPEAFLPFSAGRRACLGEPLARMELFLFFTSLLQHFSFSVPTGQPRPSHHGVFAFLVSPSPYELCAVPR
Sequence of CYP3A4 (CYP3A) (P08684 2-503): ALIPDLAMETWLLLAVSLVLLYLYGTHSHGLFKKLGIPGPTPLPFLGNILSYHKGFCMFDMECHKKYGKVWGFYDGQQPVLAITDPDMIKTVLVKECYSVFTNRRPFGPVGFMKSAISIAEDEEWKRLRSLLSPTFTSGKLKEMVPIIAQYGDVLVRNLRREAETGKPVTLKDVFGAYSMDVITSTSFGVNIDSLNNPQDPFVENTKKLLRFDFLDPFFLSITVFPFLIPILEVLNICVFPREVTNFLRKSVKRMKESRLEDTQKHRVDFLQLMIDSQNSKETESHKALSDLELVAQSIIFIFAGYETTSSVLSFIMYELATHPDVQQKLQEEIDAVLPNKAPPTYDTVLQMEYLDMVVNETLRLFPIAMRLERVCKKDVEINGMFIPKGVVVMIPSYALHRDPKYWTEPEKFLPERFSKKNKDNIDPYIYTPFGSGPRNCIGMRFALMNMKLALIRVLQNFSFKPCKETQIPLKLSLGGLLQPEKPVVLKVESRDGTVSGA
Sequence of Beta Secretase enzyme (BACE) (P56817 46-501): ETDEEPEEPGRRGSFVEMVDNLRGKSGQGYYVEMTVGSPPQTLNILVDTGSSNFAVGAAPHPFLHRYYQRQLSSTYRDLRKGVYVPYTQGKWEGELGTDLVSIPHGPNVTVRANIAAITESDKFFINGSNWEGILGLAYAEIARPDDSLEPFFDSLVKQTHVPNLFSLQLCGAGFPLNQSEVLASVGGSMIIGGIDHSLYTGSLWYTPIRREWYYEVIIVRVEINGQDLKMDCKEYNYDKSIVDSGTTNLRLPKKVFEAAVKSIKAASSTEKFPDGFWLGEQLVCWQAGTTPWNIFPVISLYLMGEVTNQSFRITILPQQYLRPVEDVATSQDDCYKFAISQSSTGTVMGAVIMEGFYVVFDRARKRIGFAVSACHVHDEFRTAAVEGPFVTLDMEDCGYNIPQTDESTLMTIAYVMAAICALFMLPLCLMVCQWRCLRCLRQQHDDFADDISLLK

Structure (SMILES): CC(C)(C)Cc1cnc2c(c1)[C@@H](NC[C@@H](O)[C@H](Cc1ccc(F)cc1)NC(=O)[C@H]1CCO1)CC1(CCC1)O2 [Example 440, (2R)—N-((1S,2R)-3-(((4′S)-6′-(2,2-dimethylpropyl)-3′,4′-dihydrospiro[cyclobutane-1,2′-pyrano[2,3-b]pyridin]-4′-yl)amino)-1-((4-fluorophenyl)methyl)-2-hydroxypropyl)-2-oxetanecarboxamide]
- IC50 (CYP3A4 (CYP3A)): 700 nM
- IC50 (CYP2D6; CYP enzyme inhibition): 8.2 µM
- IC50 ([1]; HEK293, HEK cells): 0.035 µM
- IC50 ([2]; BACE enzyme assay): 0.016 µM
- RLM ([3]; rat liver microsomal data): 242 µL/min/mg
- HLM ([4]; human liver microsomal data): 209 µL/min/mg

Structure (SMILES): CC(C)(C)Cc1cnc2c(c1)[C@@H](NC[C@@H](O)[C@H](Cc1ccc(F)cc1)NC(=O)[C@@H]1CCO1)CC1(CCC1)O2 [Example 441, (2S)—N-((1S,2R)-3-(((4′S)-6′-(2,2-dimethylpropyl)-3′,4′-dihydrospiro[cyclobutane-1,2′-pyrano[2,3-b]pyridin]-4′-yl)amino)-1-((4-fluorophenyl)methyl)-2-hydroxypropyl)-2-oxetanecarboxamide]
- IC50 (CYP3A4 (CYP3A)): 1100 nM
- IC50 (CYP2D6; CYP enzyme inhibition): ≥ 27 µM
- IC50 ([1]; HEK293, HEK cells): 0.012 µM
- IC50 ([2]; BACE enzyme assay): 0.012 µM
- RLM ([3]; rat liver microsomal data): 124 µL/min/mg
- HLM ([4]; human liver microsomal data): 416 µL/min/mg

Structure (SMILES): COCC(=O)N[C@@H](Cc1cc(F)cc(-c2nccs2)c1)[C@H](O)CN[C@H]1CC2(CCC2)Oc2ncc(CC(C)C)cc21 [Example 695, N-((1S,2R)-1-(3-fluoro-5-(1,3-thiazol-2-yl)benzyl)-2-hydroxy-3-(((4′S)-6′-(2-methylpropyl)-3′,4′-dihydrospiro[cyclobutane-1,2′-pyrano[2,3-b]pyridin]-4′-yl)amino)propyl)-2-methoxyacetamide]
- IC50 (CYP3A4 (CYP3A)): 100 nM
- IC50 (CYP2D6; CYP2D6 inhibition): 0.5 µM
- IC50 [1, 5]: 0.011 µM
- IC50 ([2]; BACE enzyme assay IC50): 0.004 µM
- RLM ([3]; rat liver microsomes): 64 µL/min/mg
- HLM ([4]; human liver microsomes): 77 µL/min/mg

Structure (SMILES): COCC(=O)N[C@@H](Cc1cc(F)cc(-c2nccs2)c1)[C@H](O)CN[C@H]1CC2(CCC2)Oc2ncc(CC(C)(C)F)cc21 [Example 724, N-((1S,2R)-3-(((4′S)-6′-(2-fluoro-2-methylpropyl)-3′,4′-dihydrospiro[cyclobutane-1,2′-pyrano[2,3-b]pyridin]-4′-yl)amino)-1-(3-fluoro-5-(1,3-thiazol-2-yl)benzyl)-2-hydroxypropyl)-2-methoxyacetamide]
- IC50 (CYP3A4 (CYP3A)): 200 nM
- IC50 (CYP2D6; CYP2D6 inhibition): 0.9 µM
- IC50 [1, 5]: 0.009 µM
- IC50 ([2]; BACE enzyme assay IC50): 0.006 µM
- RLM ([3]; rat liver microsomes): 38 µL/min/mg
- HLM ([4]; human liver microsomes): 45 µL/min/mg

Structure (SMILES): COCC(=O)N[C@@H](Cc1cccc(-c2nccs2)c1)[C@H](O)CN[C@H]1CC2(CCC2)Oc2ncc(CC(C)C)cc21 [Example 757, N-((1S,2R)-2-hydroxy-3-(((4′S)-6′-(2-methylpropyl)-3′,4′-dihydrospiro[cyclobutane-1,2′-pyrano[2,3-b]pyridin]-4′-yl)amino)-1-(3-(1,3-thiazol-2-yl)benzyl)propyl)-2-methoxyacetamide]
- IC50 (CYP3A4 (CYP3A)): 250 nM
- IC50 (CYP2D6; CYP enzyme inhibition): 0.45 µM
- IC50 [1, 6]: 0.018 µM
- IC50 [2, 7]: 0.007 µM
- RLM ([3]; rat liver microsomal data): 60 µL/min/mg
- HLM ([4]; human liver microsomal data): 60 µL/min/mg

Structure (SMILES): CO[C@H](C)C(=O)N[C@@H](Cc1cc(F)cc(-c2nccs2)c1)[C@H](O)CN[C@H]1CC2(CCC2)Oc2ncc(CC(C)C)cc21 [Example 761]
- IC50 (CYP3A4 (CYP3A)): 100 nM
- IC50 (CYP2D6; CYP enzyme inhibition): 0.7 µM
- IC50 [1, 6]: 0.375 µM
- IC50 [2, 7]: 1.62 µM
- RLM ([3]; rat liver microsomal data): 74 µL/min/mg
- HLM ([4]; human liver microsomal data): 85 µL/min/mg

Structure (SMILES): CCOCC(=O)N[C@@H](Cc1ccc2c(c1)OCO2)[C@H](O)CN[C@H]1CC2(CCC2)Oc2ncc(CC(C)(C)C)cc21 [Example 772, N-((1S,2R)-1-(1,3-benzodioxol-5-ylmethyl)-3-(((4′S)-6′-(2,2-dimethylpropyl)-3′,4′-dihydrospiro[cyclobutane-1,2′-pyrano[2,3-b]pyridin]-4′-yl)amino)-2-hydroxypropyl)-2-ethoxyacetamide]
- IC50 (CYP3A4 (CYP3A)): 200 nM
- IC50 (CYP2D6; CYP enzyme inhibition): 1.1 µM
- IC50 [1, 6]: 0.042 µM
- IC50 [2, 7]: 0.021 µM
- RLM ([3]; rat liver microsomal data): 112 µL/min/mg
- HLM ([4]; human liver microsomal data): 28 µL/min/mg

Structure (SMILES): COCC(=O)N[C@@H](Cc1cc(F)cc(-c2nccs2)c1)[C@H](O)CN[C@H]1CC2(CCC2)Oc2ncc([C@@H]3CC3(C)C)cc21 [Example 773, N-((1S,2R)-3-(((4′S)-6′-((1R)-2,2-dimethylcyclopropyl)-3′,4′-dihydrospiro[cyclobutane-1,2′-pyrano[2,3-b]pyridin]-4′-yl)amino)-1-(3-fluoro-5-(1,3-thiazol-2-yl)benzyl)-2-hydroxypropyl)-2-methoxyacetamide]
- IC50 (CYP3A4 (CYP3A)): 300 nM
- IC50 (CYP2D6; CYP enzyme inhibition): 0.3 µM
- IC50 [1, 6]: 0.006 µM
- IC50 [2, 7]: 0.003 µM
- RLM ([3]; rat liver microsomal data): 67 µL/min/mg
- HLM ([4]; human liver microsomal data): 62 µL/min/mg

Structure (SMILES): CO[C@H](C)C(=O)N[C@@H](Cc1cccc(-c2nccs2)c1)[C@H](O)CN[C@H]1CC2(CCC2)Oc2ncc(CC(C)C)cc21 [Example 776, (2R)-N-((1S,2R)-2-hydroxy-3-(((4′S)-6′-(2-methylpropyl)-3′,4′-dihydrospiro[cyclobutane-1,2′-pyrano[2,3-b]pyridin]-4′-yl)amino)-1-(3-(1,3-thiazol-2-yl)benzyl)propyl)-2-methoxypropanamide]
- IC50 (CYP3A4 (CYP3A)): 200 nM
- IC50 (CYP2D6; CYP enzyme inhibition): 0.7 µM
- IC50 [1, 6]: 0.027 µM
- IC50 [2, 7]: 0.014 µM
- RLM ([3]; rat liver microsomal data): 61 µL/min/mg
- HLM ([4]; human liver microsomal data): 58 µL/min/mg

Structure (SMILES): C#Cc1cccc(C[C@H](NC(=O)[C@@H](C)OC)[C@H](O)CN[C@H]2CC3(CCC3)Oc3ncc(CC(C)C)cc32)c1 [Example 777, (2R)-N-((1S,2R)-1-(3-ethynylbenzyl)-2-hydroxy-3-(((4′S)-6′-(2-methylpropyl)-3′,4′-dihydrospiro[cyclobutane-1,2′-pyrano[2,3-b]pyridin]-4′-yl)amino)propyl)-2-methoxypropanamide]
- IC50 (CYP3A4 (CYP3A)): 100 nM
- IC50 (CYP2D6; CYP enzyme inhibition): 2.1 µM
- IC50 [1, 6]: 0.013 µM
- IC50 [2, 7]: 0.006 µM
- RLM ([3]; rat liver microsomal data): 38 µL/min/mg
- HLM ([4]; human liver microsomal data): 29 µL/min/mg
